# Reference: patent publication US9597407B2, “Targeted antimicrobial moieties” (C3 Jian, Inc., priority 2009, dated 2017)
# “Also recorded” adds a separate entry of the source.
# Columns and labels:
# [1] = test system: microorganisms; test: Morphology, biofilm and growth disruption by peptides (Table 5); assay type: cell-based; design: key: A: Peptide aggregates; B: Less hyphal formation; Clumps; Diffuse clumps and small polyps; F: Diffuse growth; H: Thin; I: Growth inhibition; Microcolony formation; Rippled; Small polyps; Thick; W: Halo formation on top, microlonies on bottom
# Source text: In certain embodiments peptides that induce alterations in phenotype or other biological activities can also be used as antimicrobial effector moieties.
# [2] = test system: bacteria; test: Binding of targeting peptides to microorganisms (Table 3); details: preferably 1x PBS; for Target(s) (microorganism bound by the targeting peptide) / Target(s) (microorganisms bound by the targeting peptide): peptide binding in aqueous buffers that varied depending on peptide solubility
# [3] = microorganism the targeting peptide binds, binding in aqueous buffers that varied with peptide solubility
# [4] = microorganism bound by the targeting peptide, binding in aqueous buffers chosen by peptide solubility
substance,measurement,setting,value
PF-691 (chain 1 HRTVEFGVLGTYLVSGGSL; chain 2 HRTVEFGVLGTYLVSGGSL; Peptide with targeting and/or antimicrobial activity),"Organism, effect (morphology, biofilm and growth disruption)",[1]; S. pneumoniae,S. pneumoniae (R)
same,Target(s) (microorganism bound by the targeting peptide),[2],Mycobacteria spp
PF-601 (YRVTVKALE; Peptide with targeting and/or antimicrobial activity),"Organism, effect (morphology, biofilm and growth disruption)",[1]; C. jejuni,C. jejuni (A)
same,"Organism, effect (morphology, biofilm and growth disruption)",[1]; E. faecalis,E. faecalis (A)
same,Target(s) (microorganism bound by the targeting peptide),[2],C. jeikeium
PF-414 (LLNKKLE; Peptide with targeting and/or antimicrobial activity),"Organism, effect",[1]; S. pneumoniae,S. pneumoniae (H)
same,Target(s) (microorganisms bound by the targeting peptide),[2],E. coli; also recorded: C. albicans; also recorded: C. jeikeium
PF-070 (SMVKSEIVDLLNGEDNDD; Peptide with targeting and/or antimicrobial activity),"Organism, effect",[1]; B. subtilis,B. subtilis (D)
same,Target(s),[2]; [3],S. epidermidis; also recorded: C. jejuni
PF-C291 (HPFLTGTGCPLFLIFRLFFVKAYFSFTVF; Peptide with targeting and/or antimicrobial activity),"Organism, effect (morphology, biofilm and growth disruption)",[1]; F. nucleatum,F. nucleatum (T)
same,"Organism, effect (morphology, biofilm and growth disruption)",[1]; S. mutans,S. mutans (F)
same,Target(s) (microorganism bound by the targeting peptide),[2],A. naeslundii; also recorded: F. nucleatum; also recorded: P. gingivalis; also recorded: S. mutans
GNVHPESDFHNLIQFIKTFLYFTIFFKYFL [PF-C290],"Organism, effect (morphology, biofilm and growth disruption)",[1]; S. mutans,S. mutans (F)
same,Target(s) (microorganism bound by the targeting peptide),[2],A. naeslundii; also recorded: F. nucleatum; also recorded: P. gingivalis; also recorded: S. mutans; also recorded: T. denticola
PF-697 (chain 1 RADARAK; chain 2 RADARAK; Peptide with targeting and/or antimicrobial activity),"Organism, effect (morphology, biofilm and growth disruption)",[1]; C. albicans,C. albicans (H)
same,"Organism, effect (morphology, biofilm and growth disruption)",[1]; S. pneumoniae,S. pneumoniae (H)
same,Target(s) (microorganism bound by the targeting peptide),[2],Mycobacteria spp
PF-637 (chain 1 SRIKQDARSVRKYDRIGIFFYSFKSA; chain 2 SRIKQDARSVRKYDRIGIFFYSFKSA; Peptide with targeting and/or antimicrobial activity),"Organism, effect (morphology, biofilm and growth disruption)",[1]; C. jeikeium,C. jeikeium (D)
same,"Organism, effect (morphology, biofilm and growth disruption)",[1]; E. faecalis,E. faecalis (D)
same,"Organism, effect (morphology, biofilm and growth disruption)",[1]; MRSA,MRSA (M)
same,"Organism, effect (morphology, biofilm and growth disruption)",[1]; S. epidermidis,S. epidermidis (M)
same,"Organism, effect (morphology, biofilm and growth disruption)",[1]; S. pneumoniae,S. pneumoniae (M)
same,Target(s) (microorganism bound by the targeting peptide),[2],S. epidermidis and P. aeruginosa and C. albicans and MRSA and S. pneumoniae and E. faecalis and C. jeikeium
PF-149 (GKVSVLTRVPRSLGGAPANQ; Peptide with targeting and/or antimicrobial activity),"Organism, effect",[1]; MRSA,MRSA (H)
same,Target(s),[2]; [4],S. epidermidis and M. luteus and E. coli and MRSA and C. jeikeium
PF-404 (VLYFQATVV; Peptide with targeting and/or antimicrobial activity),"Organism, effect",[1]; MRSA,MRSA (M)
same,"Organism, effect",[1]; S. epidermidis,S. epidermidis (M)
same,Target(s) (microorganisms bound by the targeting peptide),[2],S. epidermidis; also recorded: E. coli; also recorded: P. aeruginosa; also recorded: E. faecalis; also recorded: C. jeikeium; also recorded: C. jejuni
PF-099 (EIIAYLEGRFANA; Peptide with targeting and/or antimicrobial activity),"Organism, effect",[1]; C. jeikeium,C. jeikeium (C)
same,"Organism, effect",[1]; S. epidermidis,S. epidermidis (D)
same,Target(s),[2]; [4],S. epidermidis; also recorded: M. luteus; also recorded: E. coli; also recorded: C. jeikeium
PF-433 (MRKEFHNVLSSGQLLADKRPARDYNRK; Peptide with targeting and/or antimicrobial activity),"Organism, effect (morphology, biofilm and growth disruption)",[1]; S. pneumoniae,S. pneumoniae (H)
same,Target(s) (microorganisms bound by the targeting peptide),[2],S. epidermidis; also recorded: E. coli; also recorded: S. pneumoniae; also recorded: C. jeikeium
DEIKVSDEEIEKFIKENNL [PF-597],"Organism, effect (morphology, biofilm and growth disruption)",[1]; E. faecalis,E. faecalis (A)
same,Target(s) (microorganism bound by the targeting peptide),[2],P. mirabilis
PF-180 (SGLGDLGFSSEAK; Peptide with targeting and/or antimicrobial activity),"Organism, effect",[1]; S. epidermidis,S. epidermidis (C)
same,Target(s),[2]; [4],S. epidermidis and M. luteus and P. aeruginosa and C. albicans and MRSA and E. faecalis and C. jejuni and M. smegmatis
PF-129 (MKLLARDPWVCAWNDIW; Peptide with targeting and/or antimicrobial activity),"Organism, effect",[1]; C. jeikeium,C. jeikeium (R)
same,"Organism, effect",[1]; S. epidermidis,S. epidermidis (M)
same,Target(s),[2]; [4],S. epidermidis and MRSA and E. faecalis and C. jeikeium and C. jejuni
PF-425 (MMELVLKTIIGPIVVGVVLRIVDKWLNKDK; Peptide with targeting and/or antimicrobial activity),"Organism, effect (morphology, biofilm and growth disruption)",[1]; C. albicans,C. albicans (A)
same,"Organism, effect (morphology, biofilm and growth disruption)",[1]; C. jejuni,C. jejuni (D)
same,"Organism, effect (morphology, biofilm and growth disruption)",[1]; E. coli,E. coli (C)
same,"Organism, effect (morphology, biofilm and growth disruption)",[1]; E. faecalis,E. faecalis (D)
same,"Organism, effect (morphology, biofilm and growth disruption)",[1]; MRSA,MRSA (D)
same,"Organism, effect (morphology, biofilm and growth disruption)",[1]; P. aeruginosa,P. aeruginosa (A)
same,"Organism, effect (morphology, biofilm and growth disruption)",[1]; S. epidermidis,S. epidermidis (D)
same,"Organism, effect (morphology, biofilm and growth disruption)",[1]; S. pneumoniae,S. pneumoniae (D)
same,Target(s) (microorganisms bound by the targeting peptide),[2],S. epidermidis and M. luteus and E. coli and P. aeruginosa and C. albicans and MRSA and S. pneumoniae and C. jeikeium
PF-003 (chain 1 MNNWIKVAQISVTVINEVIDIMKEKQNGGK; chain 2 MNNWIKVAQISVTVINEVIDIMKEKQNGGK; Peptide with targeting and/or antimicrobial activity),"Organism, effect",[1]; C. jeikeium,C. jeikeium (A)
same,"Organism, effect",[1]; M. luteus,M. luteus (A)
same,"Organism, effect",[1]; MRSA,MRSA (R)
same,"Organism, effect",[1]; S. epidermidis,S. epidermidis (D)
same,Target(s),[2]; [3],S. epidermidis and M. luteus and P. mirabilis and C. albicans and MRSA and C. jeikeium
PF-C075 (KALVISVFAIVFSIIFVKFFYWRDKK; Peptide with targeting and/or antimicrobial activity),"Organism, effect (morphology, biofilm and growth disruption)",[1]; F. nucleatum,F. nucleatum (T)
same,"Organism, effect (morphology, biofilm and growth disruption)",[1]; P. gingivalis,P. gingivalis (R)
same,"Organism, effect (morphology, biofilm and growth disruption)",[1]; S. mutans,S. mutans (F)
same,Target(s) (microorganism bound by the targeting peptide),[2],A. naeslundii; also recorded: F. nucleatum; also recorded: P. gingivalis; also recorded: S. mutans; also recorded: T. denticola
PF-666 (chain 1 PNRRSRPR; chain 2 PNRRSRPR; Peptide with targeting and/or antimicrobial activity),"Organism, effect (morphology, biofilm and growth disruption)",[1]; S. pneumoniae,S. pneumoniae (A)
same,Target(s) (microorganism bound by the targeting peptide),[2],Mycobacteria spp
PF-636 (chain 1 LVRLA; chain 2 LVRLA; Peptide with targeting and/or antimicrobial activity),"Organism, effect (morphology, biofilm and growth disruption)",[1]; B. subtilis,B. subtilis (H)
same,"Organism, effect (morphology, biofilm and growth disruption)",[1]; C. albicans,C. albicans (B)
same,"Organism, effect (morphology, biofilm and growth disruption)",[1]; E. faecalis,E. faecalis (H)
same,"Organism, effect (morphology, biofilm and growth disruption)",[1]; S. pneumoniae,S. pneumoniae (H)
same,Target(s) (microorganism bound by the targeting peptide),[2],S. epidermidis and C. albicans and MRSA and S. pneumoniae and E. faecalis
PF-401 (YWLSRVTTGHSFAFEKPVPLSLTIK; Peptide with targeting and/or antimicrobial activity),"Organism, effect",[1]; E. coli,E. coli (R)
same,"Organism, effect",[1]; E. faecalis,E. faecalis (C)
same,"Organism, effect",[1]; MRSA,MRSA (C)
same,"Organism, effect",[1]; S. epidermidis,S. epidermidis (C)
same,Target(s) (microorganisms bound by the targeting peptide),[2],S. epidermidis and E. coli and P. aeruginosa and MRSA and E. faecalis and C. jejuni
PF-153 (GILARADCSQIA; Peptide with targeting and/or antimicrobial activity),"Organism, effect",[1]; C. jeikeium,C. jeikeium (C)
same,"Organism, effect",[1]; S. epidermidis,S. epidermidis (M)
same,Target(s),[2]; [4],M. luteus and P. mirabilis and E. coli and MRSA
PDAPRTCYHKPILAALSRIVVTDR [PF-524],"Organism, effect (morphology, biofilm and growth disruption)",[1]; E. coli,E. coli (M)
same,"Organism, effect (morphology, biofilm and growth disruption)",[1]; E. faecalis,E. faecalis (C)
same,"Organism, effect (morphology, biofilm and growth disruption)",[1]; MRSA,MRSA (C)
same,"Organism, effect (morphology, biofilm and growth disruption)",[1]; S. pneumoniae,S. pneumoniae (M)
same,Target(s) (microorganisms bound by the targeting peptide),[2],S. epidermidis and E. coli and P. aeruginosa and C. albicans and MRSA and S. pneumoniae and E. faecalis and C. jeikeium
PF-590 (YYQAKLFPLL; Peptide with targeting and/or antimicrobial activity),"Organism, effect (morphology, biofilm and growth disruption)",[1]; C. jejuni,C. jejuni (R)
same,Target(s) (microorganisms bound by the targeting peptide),[2],S. epidermidis; also recorded: M. luteus; also recorded: E. coli; also recorded: E. faecalis; also recorded: C. jeikeium
PF-C131 (QWIVAKREIRMHIYCHISVIHVIIFFG; Peptide with targeting and/or antimicrobial activity),"Organism, effect (morphology, biofilm and growth disruption)",[1]; F. nucleatum,F. nucleatum (T)
same,"Organism, effect (morphology, biofilm and growth disruption)",[1]; S. mutans,S. mutans (F)
same,Target(s) (microorganism bound by the targeting peptide),[2],A. naeslundii; also recorded: F. nucleatum; also recorded: P. gingivalis; also recorded: S. mutans
LSPRPIIVSRRSRADNNNDWSR [PF-143],"Organism, effect",[1]; P. aeruginosa,P. aeruginosa (C)
same,Target(s),[2]; [4],S. epidermidis and MRSA and C. jeikeium
PF-430 (AVVCGYLAYTATS; Peptide with targeting and/or antimicrobial activity),"Organism, effect (morphology, biofilm and growth disruption)",[1]; MRSA,MRSA (M)
same,"Organism, effect (morphology, biofilm and growth disruption)",[1]; S. epidermidis,S. epidermidis (M)
same,"Organism, effect (morphology, biofilm and growth disruption)",[1]; S. pneumoniae,S. pneumoniae (M)
same,Target(s) (microorganisms bound by the targeting peptide),[2],S. epidermidis; also recorded: M. luteus; also recorded: E. coli; also recorded: S. pneumoniae; also recorded: E. faecalis; also recorded: C. jeikeium; also recorded: C. jejuni
